Laboratory results as given in the supplement of paper PMC11061612.

How the values were obtained:
AZD8186 = compound: C[C@@H](Nc1cc(F)cc(F)c1)c1cc(C(=O)N(C)C)cc2c(=O)cc(N3CCOCC3)oc12 [AZD8186]; conditions: max 3 µM
Method in brief: (§1)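 Viability was measured with CellTiter-Glo 2.0 luminescence after 72 hours of dosing at a final DMSO of typically 0.2%, and scaled between blank-well and DMSO-well means. Beforehand, cancer cell lines sat 24 hours at 37°C and 5% CO2 in 1536-well plates in 7.5 μl DMEM/F12 or RPMI with 10% FBS. A non-linear mixed effects model fitted two-parameter logistic curves to the dose responses. The single-agent IC50 comes from these fits.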

AZD1775 = compound: C=CCn1c(=O)c2cnc(Nc3ccc(N4CCN(C)CC4)cc3)nc2n1-c1cccc(C(C)(C)O)n1 [AZD1775]; conditions: max 3 µM
Method in brief: as §1

Savolitinib = compound: C[C@@H](c1ccc2nccn2c1)n1nnc2ncc(-c3cnn(C)c3)nc21 [Savolitinib]; conditions: max 1 µM
Method in brief: as §1

Trametinib = compound: CC(=O)Nc1cccc(-n2c(=O)n(C3CC3)c(=O)c3c(Nc4ccc(I)cc4F)n(C)c(=O)c(C)c32)c1 [Trametinib]; conditions: max 1 µM
Method in brief: as §1

AZD2811 = compound: CCN(CCO)CCCOc1ccc2c(Nc3cc(CC(=O)Nc4cccc(F)c4)[nH]n3)ncnc2c1 [AZD2811]; conditions: max 1 µM
Method in brief: as §1

Lapatinib = compound: CS(=O)(=O)CCNCc1ccc(-c2ccc3ncnc(Nc4ccc(OCc5cccc(F)c5)c(Cl)c4)c3c2)o1 [Lapatinib]; conditions: max 10 µM
Method in brief: as §1

Palbociclib = compound: CC(=O)c1c(C)c2cnc(Nc3ccc(N4CCNCC4)cn3)nc2n(C2CCCC2)c1=O [Palbociclib]; conditions: max 10 µM
Method in brief: as §1

Prexasertib = compound: COc1cccc(OCCCN)c1-c1cc(Nc2cnc(C#N)cn2)n[nH]1 [Prexasertib]; conditions: max 1 µM
Method in brief: as §1

Olaparib = compound: O=C(c1cc(Cc2n[nH]c(=O)c3ccccc23)ccc1F)N1CCN(C(=O)C2CC2)CC1 [Olaparib]
Method in brief: as §1

Gefitinib = compound: COc1cc2ncnc(Nc3ccc(F)c(Cl)c3)c2cc1OCCCN1CCOCC1 [Gefitinib]; conditions: max 10 µM
Method in brief: as §1

Capivasertib = compound: C1CN(CCC1(C(=O)N[C@@H](CCO)C2=CC=C(C=C2)Cl)N)C3=NC=NC4=C3C=CN4 [Capivasertib]; conditions: max 10 µM
Method in brief: as §1

SN-38 = compound: CCc1c2c(nc3ccc(O)cc13)-c1cc3c(c(=O)n1C2)COC(=O)[C@]3(O)CC [SN-38]; conditions: max 0.3 µM
Method in brief: as §1

AZD4320 = compound: CN(CC[C@H](CSC1=CC=CC=C1)NC2=C(C=C(C=C2)S(=O)(=O)NC(=O)C3=CC=C(C=C3)N4CCC(CC4)[C@H](C5=CC=CC=C5C6=CC=C(C=C6)Cl)O)S(=O)(=O)C(F)(F)F)CCO [AZD4320]; conditions: max 1 µM
Method in brief: as §1

Dasatinib = compound: CC1=C(C(=CC=C1)Cl)NC(=O)C2=CN=C(S2)NC3=CC(=NC(=N3)C)N4CCN(CC4)CCO [Dasatinib]; conditions: max 2 µM
Method in brief: as §1

MK-2206 = compound: NC1(c2ccc(-c3nc4ccn5c(=O)[nH]nc5c4cc3-c3ccccc3)cc2)CCC1 [MK-2206]; conditions: max 10 µM
Method in brief: as §1

Doxorubicin = compound: COc1cccc2c1C(=O)c1c(O)c3c(c(O)c1C2=O)C[C@@](O)(C(=O)CO)C[C@@H]3O[C@H]1C[C@H](N)[C@H](O)[C@H](C)O1 [Doxorubicin]; conditions: max 1 µM
Method in brief: as §1

AZD5991 = compound: Cc1c2c(nn1C)CSCc1cc(n(C)n1)CSc1cc(c3ccccc3c1)OCCCc1c(C(=O)O)n(C)c3c-2c(Cl)ccc13 [AZD5991]; conditions: max 1 µM
Method in brief: as §1

AZD5153 = compound: COc1nnc2ccc(N3CCC(c4ccc(OCCN5CCN(C)C(=O)[C@H]5C)cc4)CC3)nn12 [AZD5153]; conditions: max 1 µM
Method in brief: as §1

AZD6738 = compound: C[C@@H]1COCCN1C2=NC(=NC(=C2)C3(CC3)[S@](=N)(=O)C)C4=C5C=CNC5=NC=C4 [AZD6738]; conditions: max 10 µM
Method in brief: as §1

SG3199 = compound: CC1=CN2[C@@H](C1)C=NC3=CC(=C(C=C3C2=O)OC)OCCCCCOC4=C(C=C5C(=C4)N=C[C@@H]6CC(=CN6C5=O)C)OC [SG3199]; conditions: max 0.001 µM
Method in brief: as §1

Alisertib = compound: COc1cc(Nc2ncc3c(n2)-c2ccc(Cl)cc2C(c2c(F)cccc2OC)=NC3)ccc1C(=O)O [Alisertib]; conditions: max 10 µM
Method in brief: as §1

Taselisib = compound: Cc1nc(-c2cn3c(n2)-c2ccc(-c4cnn(C(C)(C)C(N)=O)c4)cc2OCC3)n(C(C)C)n1 [Taselisib]; conditions: max 10 µM
Method in brief: as §1

AZD7648 = compound: Cc1cc2ncnn2cc1Nc1ncc2c(n1)n(C1CCOCC1)c(=O)n2C [AZD7648]; conditions: max 10 µM
Method in brief: as §1

AZD1390 = compound: CC(C)n1c(=O)n(C)c2cnc3cc(F)c(-c4ccc(OCCCN5CCCCC5)nc4)cc3c21 [AZD1390]; conditions: max 0.3 µM
Method in brief: as §1

Crizotinib = compound: C[C@@H](Oc1cc(-c2cnn(C3CCNCC3)c2)cnc1N)c1c(Cl)ccc(F)c1Cl [Crizotinib]; conditions: max 10 µM
Method in brief: as §1

Venetoclax = compound: CC1(C)CCC(CN2CCN(c3ccc(C(=O)NS(=O)(=O)c4ccc(NCC5CCOCC5)c([N+](=O)[O-])c4)c(Oc4cnc5[nH]ccc5c4)c3)CC2)=C(c2ccc(Cl)cc2)C1 [Venetoclax]; conditions: max 1 µM
Method in brief: as §1

AZD0156 = compound: CN(C)CCCOc1ccc(-c2ccc3ncc4c(c3c2)n(C2CCOCC2)c(=O)n4C)cn1 [AZD0156]; conditions: max 3 µM
Method in brief: as §1

Selumetinib = compound: Cn1cnc2c(F)c(Nc3ccc(Br)cc3Cl)c(C(=O)NOCCO)cc21 [Selumetinib]; conditions: max 10 µM
Method in brief: as §1

Cell Line | IC50, cell viability 72 h (AZD8186) [µM] | IC50, cell viability 72 h (AZD1775) [µM] | IC50, cell viability 72 h (Savolitinib) [µM] | IC50, cell viability 72 h (Trametinib) [µM] | IC50, cell viability 72 h (AZD2811) [µM] | IC50, cell viability 72 h (Lapatinib) [µM] | IC50, cell viability 72 h (Palbociclib) [µM] | IC50, cell viability 72 h (Prexasertib) [µM] | IC50, cell viability 72 h (Olaparib; max 10 µM) [µM] | IC50, cell viability 72 h (Gefitinib) [µM] | IC50, cell viability 72 h (Capivasertib) [µM] | IC50, cell viability 72 h (SN-38) [µM] | IC50, cell viability 72 h (AZD4320) [µM] | IC50, cell viability 72 h (Dasatinib) [µM] | IC50, cell viability 72 h (MK-2206) [µM] | IC50, cell viability 72 h (Doxorubicin) [µM] | IC50, cell viability 72 h (AZD5991) [µM] | IC50, cell viability 72 h (AZD5153) [µM] | IC50, cell viability 72 h (AZD6738) [µM] | IC50, cell viability 72 h (SG3199) [µM] | IC50, cell viability 72 h (Alisertib) [µM] | IC50, cell viability 72 h (Taselisib) [µM] | IC50, cell viability 72 h (AZD7648) [µM] | IC50, cell viability 72 h (AZD1390) [µM] | IC50, cell viability 72 h (Crizotinib) [µM] | IC50, cell viability 72 h (Venetoclax) [µM] | IC50, cell viability 72 h (AZD0156) [µM] | IC50, cell viability 72 h (Selumetinib) [µM] | IC50, cell viability 72 h (Olaparib; max 3 µM) [µM]
MFE-319 (Endometrial Carcinoma) | > 3 | 0.74 | > 1 | > 1 | > 1 | > 10 | > 10 | 0.0515 | > 10 | > 10 | > 10 | > 0.3 | > 1 | > 2 | > 10 | > 1 | > 1 | > 1 | 4.51 | > 0.001 | > 10 | 9.92 | > 10 | > 0.3 | > 10 | > 1 | > 3 | > 10 | 
PF-382 (T-Lymphoblastic Leukemia) | > 3 | 0.331 | > 1 | > 1 | 0.0344 | > 10 | 2.08 | 0.0172 | > 10 | > 10 | 2.25 | 0.00365 | 0.175 | 0.207 | 1.5 | 0.0858 | > 1 | 0.079 | 3.22 | > 0.001 | 0.391 | 2.78 | > 10 | > 0.3 | 4.07 | > 1 | > 3 | > 10 | 
NCI-H2347 (Lung Adenocarcinoma) | > 3 | > 3 | > 1 | > 1 | > 1 | > 10 | > 10 | > 1 | > 10 | > 10 | > 10 | > 0.3 | > 1 | > 2 | > 10 | > 1 | > 1 | > 1 | > 10 | > 0.001 | > 10 | > 10 | > 10 | > 0.3 | > 10 | > 1 | > 3 | > 10 | 
NCI-H1573 (Lung Adenocarcinoma) | > 3 | > 3 | > 1 | 0.429 | > 1 | > 10 | > 10 | 0.296 | > 10 | > 10 | > 10 | > 0.3 | > 1 | > 2 | > 10 | > 1 | > 1 | > 1 | > 10 | > 0.001 | > 10 | > 10 | > 10 | > 0.3 | > 10 | > 1 | > 3 | > 10 | 
NCI-H2405 (Lung Adenocarcinoma) | > 3 | > 3 | > 1 | 0.43 | > 1 | > 10 | > 10 | > 1 | > 10 | > 10 | > 10 | > 0.3 | > 1 | > 2 | > 10 | > 1 | > 1 | > 1 | > 10 | > 0.001 | > 10 | > 10 | > 10 | > 0.3 | > 10 | > 1 | > 3 | > 10 | 
OVISE (Ovarian Carcinoma) | > 3 | 0.952 | > 1 | > 1 | > 1 | > 10 | > 10 | 0.1 | > 10 | > 10 | > 10 | > 0.3 | 0.463 | 0.415 | > 10 | > 1 | > 1 | 0.681 | 5.98 | > 0.001 | 8.95 | 0.449 | > 10 | > 0.3 | > 10 | > 1 | > 3 | > 10 | 
PFSK-1 (Other Solid Carcinomas) | > 3 | 1.06 | > 1 | > 1 | > 1 | > 10 | > 10 | 0.0404 |  | > 10 | > 10 | 0.0324 | > 1 | > 2 | 2.09 |  | 0.114 | > 1 | 8.13 |  | > 10 | 0.626 | > 10 | > 0.3 | 3.07 | > 1 | > 3 | > 10 | > 3
